From patent publication US5032384A, “Compositions and method for the treatment of disease” (Block Drug Company, Inc., priority 1989, dated 1991)

Target: cyclooxygenase cascade
Assay: Inhibition of PGE2 synthesis (assay of cyclooxygenase products, 14C arachidonate incorporation) in homogenate of inflamed human gingival tissue
Assay type: biochemical
Procedure: A large pool of inflamed human gingival tissue was obtained from patients with periodontitis who were undergoing routine periodontal surgery. The tissues were immediately stored in liquid nitrogen prior to use or were used fresh. The assay of cyclooxygenase products was performed as a modification of the assay of El Attar et al., J. Periodon. […] Pooled tissue was weighed and homogenized at 0°-4° C. with a Polytron® (Brinkman) homogenizer in a 0.2 M TRIS buffer, pH 8.0, at a final concentration of 20 mg/ml. After centrifugation for 10 minutes at 1200×g, the supernatant was divided into 3 ml aliquots for incubation in the presence or absence of a test compound.
Prostanoids were extracted as described by Powell, Methods in Eng., 86, 467 (1982) using a Sep-Pak-C18 cartridge from Waters Associates. The Sep-Pak was prepared by the sequential elution of 20 milliliters of ethanol and 20 milliliters of water. The sample was then adjusted to 15% ethanol, pH 3.0, with acetic acid and applied to the column. […]
These are readily separated and quantified using a 4.6×100 nm RP-18 Spheri-5u column from Brownle Labs. A Flow-One radioactivity monitor simultaneously measured radioactivity while monitoring elution at 192 nanometers.
The net incorporation of the 14C arachidonate was measured in the absence of the test substance in order to determine the maximum activity of the cyclooxygenase cascade.

IC50 value of alpha-tocopherol (inhibition of PGE2 synthesis) (change in presence of ketoprofen) | Structure (SMILES) | IC50 value of ketoprofen (inhibition of PGE2 synthesis) (change in presence of alpha-tocopherol)
– | CC(C(=O)O)c1cccc(C(=O)c2ccccc2)c1 (centres unmarked) [ketoprofen] | lowered
lowered | Cc1c(C)c2c(c(C)c1O)CCC(C)(CCCC(C)CCCC(C)CCCC(C)C)O2 (stereo not drawn) [alpha-tocopherol] | –
